The values below come from paper PMC12844335, “Cycloruthenated Imines: A Step into the Nanomolar Region” (Molecules, 2026).

The test system of assay [1] is A2780 human ovarian carcinoma cell line. The assay is described as follows: MTT antiproliferative assay, A2780. The note with it: mean ± SD of three independent experiments, read-out: IC50 (72 h) А2780. The class given is cell-based.
Experimental: (§1) The in vitro antiproliferative activity of the synthesized Ru-organometallic compounds and several starting ligands was evaluated against three human cell lines using the MTT assay. We selected a small panel of cell lines that provided insights into the efficacy and potential therapeutic utility of the compounds. The panel includes the A2780 human ovarian carcinoma cell line, which is sensitive to cisplatin, its cisplatin-resistant counterpart, A2780cis, also a non-malignant human embryonic kidney cell line, HEK293. The use of A2780 and A2780cis paired cell lines allowed us to directly assess the ability of the compounds to overcome resistance mechanisms. The inclusion of the HEK293 cell line can give us preliminary indication of selectivity against non-cancerous cells. Cisplatin, a clinically used drug, was used as a positive control in all experiments. All studies were performed in triplicate and repeated in three independent experiments.
(§2) The human A2780 ovarian adenocarcinoma, A2780cis cisplatin resistant ovarian adenocarcinoma, HEK293 human embryonic kidney cell lines were obtained from the European collection of authenticated cell cultures (ECACC; Salisbury, UK). Cells were grown in a RPMI 1640 (Gibco™, Cork, Ireland) cell medium (A2780, A2780cis), or DMEM (Gibco™, Ireland) cell medium (HEK293) supplemented with 10% fetal bovine serum (Gibco™, São Paulo, Brazil). The cells were cultured in an incubator at 37 °C in a humidified 5% CO2 atmosphere and were subcultured two times a week. The antiproliferative activity was studied by MTT assays as published previously [38].
For assay [2], the system named is A2780cis cisplatin resistant ovarian adenocarcinoma. The experiment in a line: MTT antiproliferative assay, A2780cis.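 As to all read-outs here: antiproliferative MTT assay with 72 h exposure on cisplatin-resistant A2780cis versus parent A2780 cells, cisplatin as positive control, triplicate wells in each of three independent experiments.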 The class given is cell-based, human. The note with it: for IC50: MTT, 72 h incubation, mean ± SD of three independent experiments; for Rf resistance coefficient: IC50 on A2780cis divided on IC50 on A2780.
Experimental: as §1, §2
Assay [3] deals with HEK293 human embryonic kidney cell line. The experiment in a line: MTT antiproliferative assay, HEK293.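 As to all read-outs here: cells grown at 37 °C under humidified 5% CO2, cisplatin run alongside as positive control, each test in triplicate wells.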 The class given is cell-based. The note with it: for Selectivity Index, SI: IC50 on HEK293 divided on IC50 on A2780; for IC50: MTT, 72 h incubation, mean ± SD of three independent experiments.
Experimental: as §1, §2
The mark [4] stands for this setting: Homo sapiens, A2780, 72 h incubation.

SMILES strings stand for the structures. Where two headings read alike, the source gives them in different places. Some results are limits rather than exact numbers.

As for `FC(F)(F)c1ccc([N+]2=Cc3scc[c]3[Ru-4]234([n+]2ccccc2-c2cccc[n+]23)[n+]2ccccc2-c2cccc[n+]24)cc1.F[P-](F)(F)(F)(F)F` [Compound 3o, Bis(2,2′-bipiridine)[N-((thiophene-2-yl-κC^2)methyliden]-4-(trifluoromethyl)aniline-κN]ruthenium(II) hexafluorophosphate], the IC50 in assay [1] (72 h incubation) worked out at 96 ± 3 nM; in assay [2] it was 150 ± 5 nM; in assay [3], 160 ± 30 nM. Also, in assay [3], the “Selectivity Index, SI” value was found to be 1.7.
For the molecule `Fc1ccc(/N=C/c2ccccc2)cc1` [Compound 1b], the IC50 was more than 200000 nM in assay [1] (setting [4]); more than 100000 nM in assay [2] (Homo sapiens, A2780cis); 21600 nM in assay [3] (Homo sapiens, HEK293).
With `F[P-](F)(F)(F)(F)F.O=[N+]([O-])c1ccc([N+]2=Cc3scc[c]3[Ru-4]234([n+]2ccccc2-c2cccc[n+]23)[n+]2ccccc2-c2cccc[n+]24)cc1` [Compound 3n, Bis(2,2′-bipiridine)[N-((thiophene-2-yl-κC^2)methyliden]-4-nitroaniline-κN]ruthenium(II) hexafluorophosphate], the IC50 in assay [1] (72 h incubation) amounted to 270 ± 4 nM. In addition, in assay [2], the Rf resistance coefficient is 3.6 and inhibition was half-maximal at 960 ± 100 nM (IC50). In assay [3], the “Selectivity Index, SI” value came to 2.0 and the IC50 came to 530 ± 30 nM.
As for `COc1ccc([N+]2=Cc3scc[c]3[Ru-4]234([n+]2ccccc2-c2cccc[n+]23)[n+]2ccccc2-c2cccc[n+]24)cc1.F[P-](F)(F)(F)(F)F` [Compound 3l, Bis(2,2′-bipiridine)[N-((thiophene-2-yl-κC^2)methyliden]-4-methoxyaniline-κN]ruthenium(II) hexafluorophosphate], in assay [1] (72 h incubation), the IC50 came to 39 ± 3 nM. In assay [2], this molecule yielded a Rf resistance coefficient of 1.0 and an IC50 of 39 ± 10 nM. In addition, in assay [3], the “Selectivity Index, SI” value is given as 1.0 and 40 ± 10 nM corresponded to half-maximal inhibition (IC50).
As for `F[P-](F)(F)(F)(F)F.O=[N+]([O-])c1ccc([N+]2=Cc3cccc[c]3[Ru-4]234([n+]2ccccc2-c2cccc[n+]23)[n+]2ccccc2-c2cccc[n+]24)cc1` [Compound 3h, Bis(2,2′-bipiridine)[N-((phenyl-κC^2)methyliden]-4-nitroaniline-κN]ruthenium(II) hexafluorophosphate], the IC50 in assay [1] (72 h incubation) turned out to be 250 ± 30 nM; in assay [2], 760 ± 80 nM; in assay [3] it was 370 ± 80 nM. The molecule also showed a Rf resistance coefficient in assay [2] of 3.0. For the same molecule, the “Selectivity Index, SI” value in assay [3] stood at 1.5.
For `Cc1ccc([N+]2=Cc3cccc[c]3[Ru-4]234([n+]2ccccc2-c2cccc[n+]23)[n+]2ccccc2-c2cccc[n+]24)cc1.F[P-](F)(F)(F)(F)F` [Compound 3c, Bis(2,2′-bipiridine)[N-((phenyl-κC^2)methyliden]-4-methylaniline-κN]ruthenium(II) hexafluorophosphate], in assay [1] (72 h incubation), the IC50 is 70 ± 6 nM. In assay [2], this molecule had a Rf resistance coefficient of 1.7 and an IC50 of 120 ± 10 nM. Also, in assay [3], the “Selectivity Index, SI” value is given as 1.0 and 70 ± 10 nM corresponded to half-maximal inhibition (IC50).
For the molecule `N.N.[Cl][Pt][Cl]` [Cisplatin, reference compound], in assay [1] (72 h incubation), the IC50 stood at 2640 ± 350 nM. The Rf resistance coefficient in assay [2] is given as 5.9. Moreover, in assay [3], the “Selectivity Index, SI” value is given as 8.3 and the IC50 was 22000 nM.
As for `CCOC(=O)c1ccc([N+]2=Cc3scc[c]3[Ru-4]234([n+]2ccccc2-c2cccc[n+]23)[n+]2ccccc2-c2cccc[n+]24)cc1.F[P-](F)(F)(F)(F)F` [Compound 3m, Bis(2,2′-bipiridine)[N-((thiophene-2-yl-κC^2)methyliden]-4-ethoxycarbonylaniline-κN]ruthenium(II) hexafluorophosphate], the IC50 in assay [1] (72 h incubation) is 57 ± 20 nM. In assay [2], this molecule came in with a Rf resistance coefficient of 1.5 and an IC50 of 84 ± 12 nM. In assay [3], the “Selectivity Index, SI” value stood at 2.5 and the IC50 came out at 140 ± 10 nM.
Take `CCc1ccc([N+]2=Cc3cccc[c]3[Ru-4]234([n+]2ccccc2-c2cccc[n+]23)[n+]2ccccc2-c2cccc[n+]24)cc1.F[P-](F)(F)(F)(F)F` [Compound 3d, Bis(2,2′-bipiridine)[N-((phenyl-κC^2)methyliden]-4-ethylaniline-κN]ruthenium(II) hexafluorophosphate]: the IC50 in assay [1] (72 h incubation) stood at 45 ± 5 nM. In assay [2], the Rf resistance coefficient is 3.3 and half-maximal inhibition (IC50) was put at 150 ± 10 nM. Moreover, in assay [3], the “Selectivity Index, SI” value turned out to be 1.8 and the IC50 turned out to be 80 ± 10 nM.
The corresponding values for `FC(F)(F)c1ccc([N+]2=Cc3cccc[c]3[Ru-4]234([n+]2ccccc2-c2cccc[n+]23)[n+]2ccccc2-c2cccc[n+]24)cc1.F[P-](F)(F)(F)(F)F` [Compound 3i, Bis(2,2′-bipiridine)[N-((phenyl-κC^2)methyliden]-4-(trifluoromethyl)aniline-κN]ruthenium(II) hexafluorophosphate] are 80 ± 10 nM, 3.0, 240 ± 20 nM, 1.3 and 107 ± 8 nM.
In the case of `CC(C)(C)c1ccc([N+]2=Cc3cccc[c]3[Ru-4]234([n+]2ccccc2-c2cccc[n+]23)[n+]2ccccc2-c2cccc[n+]24)cc1.F[P-](F)(F)(F)(F)F` [Compound 3e, Bis(2,2′-bipiridine)[N-((phenyl-κC^2)methyliden]-4-(tert-butyl)aniline-κN]ruthenium(II) hexafluorophosphate], in assay [1] (72 h incubation), the IC50 was found to be 70 ± 30 nM. Also, in assay [2], the Rf resistance coefficient is 2.4 and the midpoint of inhibition, the IC50, lay at 170 ± 30 nM. In assay [3], the “Selectivity Index, SI” value is listed as 1.0 and the IC50 came to 68 ± 6 nM.
For the molecule `CCOC(=O)c1ccc([N+]2=Cc3cccc[c]3[Ru-4]234([n+]2ccccc2-c2cccc[n+]23)[n+]2ccccc2-c2cccc[n+]24)cc1.F[P-](F)(F)(F)(F)F` [Compound 3g, Bis(2,2′-bipiridine)[N-((phenyl-κC^2)methyliden]-4-ethoxycarbonylaniline-κN]ruthenium(II) hexafluorophosphate], the results for the IC50 in assay [1] (72 h incubation), in assay [2] and in assay [3] were 100 ± 20 nM, 230 ± 20 nM and 140 ± 20 nM, respectively. In addition, the Rf resistance coefficient in assay [2] came out at 2.3. The “Selectivity Index, SI” value in assay [3] was determined as 1.4.
Taken in the same sequence, the figures for `F[P-](F)(F)(F)(F)F.Fc1ccc([N+]2=Cc3scc[c]3[Ru-4]234([n+]2ccccc2-c2cccc[n+]23)[n+]2ccccc2-c2cccc[n+]24)cc1` [Compound 3j, Bis(2,2′-bipiridine)[N-((thiophene-2-yl-κC^2)methyliden]-4-fluoroaniline-κN]ruthenium(II) hexafluorophosphate] were 43 ± 3 nM, 91 ± 9 nM, 60 ± 10 nM, 2.1 and 1.4.
Take `Cc1ccc([N+]2=Cc3scc[c]3[Ru-4]234([n+]2ccccc2-c2cccc[n+]23)[n+]2ccccc2-c2cccc[n+]24)cc1.F[P-](F)(F)(F)(F)F` [Compound 3k, Bis(2,2′-bipiridine)[N-((thiophene-2-yl-κC^2)methyliden]-4-methylaniline-κN]ruthenium(II) hexafluorophosphate]: the IC50 in assay [1] (72 h incubation) was 30 ± 2 nM. Further, in assay [2], the Rf resistance coefficient was 0.3 and the IC50 was determined as 10 ± 0.4 nM. Besides, in assay [3], the “Selectivity Index, SI” value is recorded as 2.3 and the midpoint of inhibition, the IC50, lay at 70 ± 30 nM.
For the molecule `C1=[N+](c2ccccc2)[Ru-4]23([c]4ccccc41)([n+]1ccccc1-c1cccc[n+]12)[n+]1ccccc1-c1cccc[n+]13.F[P-](F)(F)(F)(F)F` [Compound 3a, Bis(2,2′-bipiridine)[N-((phenyl-κC^2)methyliden]aniline-κN]ruthenium(II) hexafluorophosphate], the IC50 in assay [1] (72 h incubation) turned out to be 33 ± 7 nM. In assay [2], this molecule gave a Rf resistance coefficient of 0.9 and an IC50 of 30 ± 10 nM. Moreover, in assay [3], the “Selectivity Index, SI” value is on record as 1.6 and the midpoint of inhibition, the IC50, lay at 53 ± 4 nM.
The corresponding values for `F[P-](F)(F)(F)(F)F.Fc1ccc([N+]2=Cc3cccc[c]3[Ru-4]234([n+]2ccccc2-c2cccc[n+]23)[n+]2ccccc2-c2cccc[n+]24)cc1` [Compound 3b, Bis(2,2′-bipiridine)[N-((phenyl-κC^2)methyliden]-4-fluoroaniline-κN]ruthenium(II) hexafluorophosphate] are 90 ± 30 nM, 2.8, 250 ± 60 nM, 1.1 and 100 ± 30 nM.
Consider `CCOC(=O)c1ccc(/N=C/c2ccccc2)cc1` [Compound 1g], for which the IC50 in assay [1] (setting [4]) is 42100 nM; in assay [2] (Homo sapiens, A2780cis) it was more than 100000 nM; in assay [3] (Homo sapiens, HEK293), 25400 nM.
As to `COc1ccc([N+]2=Cc3cccc[c]3[Ru-4]234([n+]2ccccc2-c2cccc[n+]23)[n+]2ccccc2-c2cccc[n+]24)cc1.F[P-](F)(F)(F)(F)F` [Compound 3f, Bis(2,2′-bipiridine)[N-((phenyl-κC^2)methyliden]-4-methoxyaniline-κN]ruthenium(II) hexafluorophosphate], the IC50 in assay [1] (72 h incubation) was 65 ± 4 nM; in assay [2] it was 120 ± 40 nM; in assay [3] it was 64 ± 7 nM. Besides, in assay [2], the Rf resistance coefficient was determined as 1.8. Further, the “Selectivity Index, SI” value in assay [3] came to 1.0.
